This note sets out measurements from patent US20180177147A1, “METHODS AND COMPOSITIONS FOR CULTIVATING PLANTS AND ARTIFICIAL PLANT SEEDS” (E I DU PONT DE NEMOURS AND COMPANY, priority 2014, published 2018).

The test system of test [1] is sugarcane choplets. Briefly: Survival in synthetic soil of choplets from hardened plantlets after one-day immersion in water or hormone media. In kind it is in vivo. Particulars: 1-day choplet treatment, 40 planted; for % surviving: day 10 in soil; for alive @ day 10: soil, artificial growth chamber. The procedure:
This example describes choplet growth outcomes in soil (survival; morphology) when the plantlets were hardened by various treatments such as nutrient deprivation or osmoticum exposure. The hardening protocols for the plantlets were gradual (multi-day) acclimation of the tissue to decreasing sucrose and/or to increasing polyethylene glycol 6000 (PEG-6000) in LPM. The hardening treatment was evaluated at two stages: the growth of treated plantlets transplanted to synthetic soil; and the survival of choplets from plantlets in a controlled environment.
In another study, three hardening treatments were evaluated but group C hardening treatment was modified: Group C plantlets were grown in LPM for 7 days followed by transfer every two days to a medium containing higher PEG-6000 levels until the medium content had 3% sucrose and 0.2% PEG-6000. At the end of growth in tissue culture (17 days), the plantlets were transplanted to soil.
The second test of these treated plantlets was to produce choplets and evaluate the choplets' success when transplanted to synthetic soil (Table 4). Choplets were produced from sugarcane plantlets followed by a one-day immersion in a media of water, a known plant media, or a known plant media or water containing a growth hormone, such as (6-benzylaminopurine (BAP) or gibberellins 3 (GA3)). […] Choplet preparation may comprise plantlet hardening treatment and/or media treatment after formation of a choplet.

Test [2] deals with sugarcane choplets. In words: Soil outcomes of unembedded and embedded (F4 paper tube artificial seed) choplets incubated in various media. In kind it is in vivo. Particulars: 21 hr in bathing solution, MetroMix soil. On the procedure:
This example describes the soil growth advantage conferred by the enclosure or encapsulation of sugarcane choplets in paper tubes with Parafilm™ covers at bottom and top. The choplets were from plantlets produced by a standard plantlet production process or from a hardening treatment (e.g. high CO2) in the temporary immersion Adaptis™ bioreactors. The choplets were incubated in various media. The media were sterile water; LPM; BAP=[…] prepared by solubilizing solid in dimethylsulfoxide to make 1 mg/mL stock then diluted stock solution in water (50 uL to 50 mL final volume) to prepare 1 mg/L working solution; GA3=giberellin 3 prepared by diluting commercial stock solution (1 mg/mL) in water to form a 1 mg/L working solution. The choplets were segregated into 4 groups of at least 50 choplets. Each group of choplets was weighed on a petri dish before addition of the 7 mL of bathing solution: water; LPM; BAP; and GA3. Each dish was covered and the edge was sealed with 3M Micropore™ tape. The petri dishes were secured to a nutator inside a walk-in growth chamber for 21 hr. For each choplet group, either ten (10) or twenty (20) F4 paper seed structures containing MetroMix™ soil and 200 uL water were assembled with triblock top and bottom lids. The structures were transplanted in a flat containing water-saturated MetroMix™ soil such that the top of the seed design is flush with the top of the soil surface. Encapsulating the choplet in an artificial seed provided improvement in soil survival for all media incubation groups except GA3.

[3] abbreviates: hardening Group B (lowered sucrose).
The mark [4] stands for this setting: choplets in F4 paper tube artificial seeds.

Regarding `c1ccc(CNc2ncnc3nc[nH]c23)cc1` [BAP, 6-benzylaminopurine], in the test on sugarcane choplets [1] (hardening Group A (LPM)), the “% surviving” value was 18% and the “alive @ day 10” value was found to be 7. In the test on sugarcane choplets [1] (setting [3]), the “% surviving” value is recorded as 28% and the “alive @ day 10” value is listed as 11. Also, in the test with sugarcane choplets [1] (hardening Group C (PEG-6000)), the “% surviving” value worked out at 25% and the “alive @ day 10” value turned out to be 10. For the same compound, in the test with sugarcane choplets [2] (setting [4]), the “Surviving on day 6” value worked out at 20, the “Surviving on day 17 (% surviving)” value is on record as 55% and the “Surviving on day 17 (number)” value was 11. Further, in the test with sugarcane choplets [2] (unembedded choplets), the “Surviving on day 6” value turned out to be 6, the “Surviving on day 17 (% surviving)” value is given as 7% and the “Surviving on day 17 (number)” value stood at 1.
`C=C1C[C@]23C[C@@]1(O)CC[C@H]2[C@@]12C=C[C@H](O)[C@@](C)(C(=O)O1)[C@H]2[C@@H]3C(=O)O` [GA3, gibberellins 3]: in the test on sugarcane choplets [1] (hardening Group A (LPM)), the “% surviving” value was determined as 10% and the “alive @ day 10” value is given as 4. Besides, in the test on sugarcane choplets [1] (setting [3]), the “% surviving” value was determined as 25% and the “alive @ day 10” value amounted to 10. Also, in the test on sugarcane choplets [1] (hardening Group C (PEG-6000)), the “% surviving” value turned out to be 38% and the “alive @ day 10” value is 15. Besides, in the test with sugarcane choplets [2] (setting [4]), the “Surviving on day 6” value worked out at 20, the “Surviving on day 17 (% surviving)” value amounted to 30% and the “Surviving on day 17 (number)” value came out at 6. Further, in the test on sugarcane choplets [2] (unembedded choplets), the “Surviving on day 6” value came out at 9, the “Surviving on day 17 (% surviving)” value is recorded as 29% and the “Surviving on day 17 (number)” value is 4.
